# Data published in US10710986B2, “PD-1/PD-L1 inhibitors” (Gilead Sciences, Inc., priority 2018, dated 2020).
# Molecular target: PD-1/PD-L1 (Homo sapiens (Human), UniProt Q9NZQ7)
# Assay: PD-1/PD-L1 biochemical protein-protein interaction assay (ALPHA)
# Conditions: 0.3 nM His tagged PD-L1, 2.5 nM biotinylated Fc-PD-1, 60 minutes at 25° C., read-out: IC50 PD-L1-PD1
# Chain of PD-1/PD-L1 (Q9NZQ7 19-238): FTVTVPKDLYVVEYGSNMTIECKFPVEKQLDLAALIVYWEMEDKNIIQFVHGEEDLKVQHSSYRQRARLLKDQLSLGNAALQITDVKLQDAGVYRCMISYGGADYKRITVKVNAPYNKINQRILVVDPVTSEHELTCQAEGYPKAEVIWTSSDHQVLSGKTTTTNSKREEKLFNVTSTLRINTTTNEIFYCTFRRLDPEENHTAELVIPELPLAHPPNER
row,SMILES,IC50 [nM]
1,COc1nc(-c2cccc(-c3cccc(-c4cnc(CNC5CC(C)(O)C5)c(OC)n4)c3Cl)c2Cl)cnc1CN (stereo not shown) [compound 592],0.151
2,COc1nc(-c2cccc(-c3cccc(-c4cnc(CN5CC(O)C5)c(OC)n4)c3Cl)c2Cl)cnc1CN [compound 594],0.12
3,COc1nc(-c2cccc(-c3cccc(-c4cnc(CN5CC(C)(O)C5)c(OC)n4)c3Cl)c2Cl)cnc1CN [compound 596],0.181
4,COc1nc(-c2cccc(-c3cccc(-c4cnc(CN5CC6(C5)CN(C(C)=O)C6)c(OC)n4)c3Cl)c2Cl)cnc1CN [compound 597],0.129
5,COc1nc(-c2cccc(-c3cccc(-c4cnc(CN[C@@H](C)[C@H]5CCC(=O)N5)c(OC)n4)c3Cl)c2Cl)cnc1CNC[C@@H]1CCC(=O)N1 [compound 598],0.178
6,COc1nc(-c2cccc(-c3cccc(-c4cnc5c(CNC[C@H]6C[C@H](O)C6)cn(C)c5n4)c3Cl)c2Cl)cnc1CNC[C@H]1CCC(=O)N1 [compound 603],0.073
7,COc1nc(-c2cccc(-c3cccc(-c4cnc5c(CN6CC7(C6)CN(C(C)=O)C7)cn(C)c5n4)c3Cl)c2Cl)cnc1CNC[C@H]1CCC(=O)N1 [compound 604],0.064
8,COc1nc(-c2cccc(-c3cccc(-c4cnc5c(CNC[C@@H]6CCC(=O)N6)cn(C)c5n4)c3Cl)c2Cl)cnc1CNC[C@H]1CCC(=O)N1 [compound 606],0.077
9,CCn1cc(CN2CC3(C2)CN(C(C)=O)C3)c2ncc(-c3cccc(-c4cccc(-c5cnc(CN6CC7(C6)CN(C(C)=O)C7)c(OC)n5)c4Cl)c3Cl)nc21 [compound 608],0.064
10,CCn1cc(CN2CC3(CNC(=O)C3)C2)c2ncc(-c3cccc(-c4cccc(-c5cnc(CN6CC7(CNC(=O)C7)C6)c(OC)n5)c4Cl)c3Cl)nc21 [compound 609],0.079
11,CCn1cc(CN2CC3(CCC(=O)N3)C2)c2ncc(-c3cccc(-c4cccc(-c5cnc(CN6CC7(CCC(=O)N7)C6)c(OC)n5)c4Cl)c3Cl)nc21 [compound 610],0.313
12,CCn1cc(CN2CC(O)C2)c2ncc(-c3cccc(-c4cccc(-c5cnc(CN6CC(O)C6)c(OC)n5)c4Cl)c3Cl)nc21 [compound 611],0.21
13,COc1nc(-c2cccc(-c3cccc(-c4cnc5c(CN6CC7(C6)CN(C(C)=O)C7)cn(C)c5n4)c3Cl)c2Cl)cnc1CN1CC2(C1)CN(C(C)=O)C2 [compound 612],0.064
14,COc1nc(-c2cccc(-c3cccc(-c4cnc5c(CN6CC7(CCC(=O)N7)C6)cn(C)c5n4)c3Cl)c2Cl)cnc1CN1CC2(CCC(=O)N2)C1 [compound 613],0.182
15,COc1nc(-c2cccc(-c3cccc(-c4cnc(CNC[C@@H]5CCC(=O)N5)c(OC)n4)c3F)c2Cl)ccc1CNC[C@@H]1CCC(=O)N1 [compound 614],0.079

# Other lines, results leading:
row,IC50 [nM],SMILES
1,0.064,COc1nc(-c2cccc(-c3cccc(-c4cnc(CN5CC6(CCC(=O)N6)C5)c(OC)n4)c3Cl)c2Cl)cnc1CN [compound 595]
2,0.174,COc1nc(-c2cccc(-c3cccc(-c4cnc(CN[C@H](C)[C@@H]5CCC(=O)N5)c(OC)n4)c3Cl)c2Cl)cnc1CNC[C@@H]1CCC(=O)N1 [compound 599]
3,0.064,COc1nc(-c2cccc(-c3cccc(-c4cnc(CN[C@H]5C[C@@](O)(CO)C5)c(OC)n4)c3Cl)c2Cl)cnc1CNC[C@@H]1CCC(=O)N1 [compound 600]
4,0.196,COc1nc(-c2cccc(-c3cccc(-c4cnc(CN[C@H](C)[C@@H]5CCC(=O)N5)c(OC)n4)c3Cl)c2Cl)cnc1CN[C@H](C)[C@@H]1CCC(=O)N1 [compound 601]
5,0.145,COc1nc(-c2cccc(-c3cccc(-c4cnc5c(CN6CCC7(CCC(=O)N7)C6)cn(C)c5n4)c3Cl)c2Cl)cnc1CNC[C@H]1CCC(=O)N1 (stereo partly shown) [compound 602]
6,0.113,COc1nc(-c2cccc(-c3cccc(-c4cnc5c(CN6CC7(CNC(=O)C7)C6)cn(C)c5n4)c3Cl)c2Cl)cnc1CNC[C@H]1CCC(=O)N1 [compound 605]
7,0.064,COc1nc(-c2cccc(-c3cccc(-c4cnc5c(CN6CC7(CNC(=O)C7)C6)cn(C)c5n4)c3Cl)c2Cl)cnc1CN1CC2(CNC(=O)C2)C1 [compound 607]
